42 substances from patent publication US20170189507A1, “NOVEL PEPTIDES AND COMBINATION OF PEPTIDES FOR USE IN IMMUNOTHERAPY AGAINST VARIOUS CANCERS” (immatics biotechnologies GmbH, priority 2015, published 2017) can be followed below.

The test system of the first test is CD8+ T cells. Kind of test: In vitro immunogenicity: T-cell priming with aAPCs loaded with peptide/MHC complexes and anti-CD28 antibody, pMHC multimer readout. The test is classed as cell-based, human. Particulars: CD8+ T cells of healthy donors, three stimulation cycles, multimer staining; Table 19A. Here is the method: In an aspect, the peptides are pre-screened for immunogenicity before being included in the warehouse. By way of example, and not limitation, the immunogenicity of the peptides included in the warehouse is determined by a method comprising in vitro T-cell priming through repeated stimulations of CD8+ T cells from healthy donors with artificial antigen presenting cells loaded with peptide/MHC complexes and anti-CD28 antibody.
In order to obtain information regarding the immunogenicity of the TUMAPs of the present invention, the inventors performed investigations using an in vitro T-cell priming assay based on repeated stimulations of CD8+ T cells with artificial antigen presenting cells (aAPCs) loaded with peptide/MHC complexes and anti-CD28 antibody.
In order to perform in vitro stimulations by artificial antigen presenting cells loaded with peptide-MHC complex (pMHC) and anti-CD28 antibody, the inventors first isolated CD8+ T cells from fresh HLA-A*02 leukapheresis products via positive selection using CD8 microbeads (Miltenyi Biotec, Bergisch-Gladbach, Germany) of healthy donors obtained from the University clinics Mannheim, Germany, after informed consent.
PBMCs and isolated CD8+ lymphocytes were incubated in T-cell medium (TCM) until use consisting of RPMI-Glutamax (Invitrogen, Karlsruhe, Germany) supplemented with 10% heat inactivated human AB serum (PAN-Biotech, Aidenbach, Germany), 100 U/ml Penicillin/100 μg/ml Streptomycin (Cambrex, Cologne, Germany), 1 mM sodium pyruvate (CC Pro, Oberdorla, Germany), 20 μg/ml Gentamycin (Cambrex). 2.5 ng/ml IL7 (PromoCell, Heidelberg, Germany) and 10 U/ml IL-2 (Novartis Pharma, Nurnberg, Germany) were also added to the TCM at this step.
Generation of pMHC/anti-CD28 coated beads, T-cell stimulations and readout was performed in a highly defined in vitro system using four different pMHC molecules per stimulation condition and 8 different pMHC molecules per readout condition.
The purified co-stimulatory mouse IgG2a anti human CD28 Ab 9.3 (Jung et al., 1987) was chemically biotinylated using Sulfo-N-hydroxysuccinimidobiotin as recommended by the manufacturer (Perbio, Bonn, Germany). Beads used were 5.6 μm diameter streptavidin coated polystyrene particles (Bangs Laboratories, Illinois, USA).
pMHC used for positive and negative control stimulations were A*0201/MLA-001 (peptide […] (SEQ ID NO. 303) from modified Melan-A/MART-1) and A*0201/DDX5-001 ([…] from DDX5, SEQ ID NO. 304), respectively.
800.000 beads/200 μl were coated in 96-well plates in the presence of 4×12.5 ng different biotin-pMHC, washed and 600 ng biotin anti-CD28 were added subsequently in a volume of 200 μl. Stimulations were initiated in 96-well plates by co-incubating […] CD8+ T cells with 2×10^5 washed coated beads in 200 μl TCM supplemented with 5 ng/ml IL-12 (PromoCell) for 3 days at 37° C. Half of the medium was then exchanged by fresh TCM supplemented with 80 U/ml IL-2 and incubating was continued for 4 days at 37° C. This stimulation cycle was performed for a total of three times. For the pMHC multimer readout using 8 different pMHC molecules per condition, a twodimensional combinatorial coding approach was used as previously described (Andersen et al., 2012) with minor modifications encompassing coupling to 5 different fluorochromes. Finally, multimeric analyses were performed by staining the cells with Live/dead near IR dye (Invitrogen, Karlsruhe, Germany), CD8-FITC antibody clone SK1 (BD, Heidelberg, Germany) and fluorescent pMHC multimers. For analysis, a BD LSRII SORP cytometer equipped with appropriate lasers and filters was used. Peptide specific cells were calculated as percentage of total CD8+ cells. Evaluation of multimeric analysis was done using the FlowJo software (Tree Star, Oregon, USA). In vitro priming of specific multimer+ CD8+ lymphocytes was detected by comparing to negative control stimulations.
For “297 (PFLQASPHF; listed as Homo sapiens) [compound 297]”, the “Wells (in vitro immunogenicity of HLA class I peptides)” value was “++ (20%-49% = ++)”.

With “296 (TYVDSSHTI; listed as Homo sapiens) [compound 296]”, the “Wells (in vitro immunogenicity of HLA class I peptides)” value was “+ (<20% = +)”.

Regarding “290 (KIVDFSYSV; listed as Homo sapiens) [compound 290]”, the “Wells (in vitro immunogenicity of HLA class I peptides)” value was “++ (20%-49% = ++)”.

“293 (FLVDGSWSI; listed as Homo sapiens) [compound 293]”: the “Wells (in vitro immunogenicity of HLA class I peptides)” value was “+ (<20% = +)”.

Turning to “291 (KLDETGNSL; listed as Homo sapiens) [compound 291]”, the “Wells (in vitro immunogenicity of HLA class I peptides)” value is “+ (<20% = +)”.

Take “301 (AYKPGALTF; listed as Homo sapiens) [compound 301]”: the “Wells (in vitro immunogenicity of HLA class I peptides)” value was “+ (<20% = +)”.

Regarding “292 (GMMTAILGV; listed as Homo sapiens) [compound 292]”, the “Wells (in vitro immunogenicity of HLA class I peptides)” value is “+ (<20% = +)”.

Turning to “298 (RYLEGTSCI; listed as Homo sapiens) [compound 298]”, the “Wells (in vitro immunogenicity of HLA class I peptides)” value is listed as “+ (<20% = +)”.

In the case of “300 (AYVLRLETL; listed as Homo sapiens) [compound 300]”, the “Wells (in vitro immunogenicity of HLA class I peptides)” value is given as “+ (<20% = +)”.

As to “295 (YYPGVILGF; listed as Homo sapiens) [compound 295]”, the “Wells (in vitro immunogenicity of HLA class I peptides)” value was “++ (20%-49% = ++)”.

Still in this test, the particulars now being: in vitro immunogenicity of HLA class I peptides; peptide-specific multimer+ wells after aAPC priming of CD8+ T cells.
Take “269 (YFIDSTNLKTHF; listed as Homo sapiens) [compound 269]”: the “Wells positive [%]” value is recorded as “+ (<20% = +)”.

Turning to “5 (GIVAHIQEV; listed as Homo sapiens) [compound 5]”, the “Wells positive [%]” value is “+ (<20% = +)”.

“167 (NYINRILKL; listed as Homo sapiens) [compound 167]”: the “Wells positive [%]” value is on record as “+ (<20% = +)”.

As to “197 (EYSLFPGQVVI; listed as Homo sapiens) [compound 197]”, the “Wells positive [%]” value is “+ (<20% = +)”.

On to “18 (ILLDLTDNRL; listed as Homo sapiens) [compound 18]”, for which the “Wells positive [%]” value was “+ (<20% = +)”.

On to “29 (YLLDPSITL; listed as Homo sapiens) [compound 29]”, for which the “Wells positive [%]” value is “+ (<20% = +)”.

As for “35 (FLLPFSTVYL; listed as Homo sapiens) [compound 35]”, the “Wells positive [%]” value is recorded as “+ (<20% = +)”.

“285 (HYPPVQVLF; listed as Homo sapiens) [compound 285]”: the “Wells positive [%]” value is reported as “+ (<20% = +)”.

In the case of “31 (TITETTVEV; listed as Homo sapiens) [compound 31]”, the “Wells positive [%]” value is “+ (<20% = +)”.

Regarding “26 (ALQEELTEL; listed as Homo sapiens) [compound 26]”, the “Wells positive [%]” value was “+ (<20% = +)”.

For “218 (YYKSTSSAF; listed as Homo sapiens) [compound 218]”, the “Wells positive [%]” value is “+ (<20% = +)”.

Consider “165 (DYTTWTALL; listed as Homo sapiens) [compound 165]”, for which the “Wells positive [%]” value is “+ (<20% = +)”.

Regarding “207 (AYVVFVSTL; listed as Homo sapiens) [compound 207]”, the “Wells positive [%]” value is “+ (<20% = +)”.

For “141 (FLDKVLVAA; listed as Homo sapiens) [compound 141]”, the “Wells positive [%]” value is “+ (<20% = +)”.

Regarding “163 (DYLKGLASF; listed as Homo sapiens) [compound 163]”, the “Wells positive [%]” value is given as “+ (<20% = +)”.

With “23 (SLFSDEFKV; listed as Homo sapiens) [compound 23]”, the “Wells positive [%]” value is listed as “++++ (>=70% = ++++)”.

In the case of “196 (LYIDRPLPYL; listed as Homo sapiens) [compound 196]”, the “Wells positive [%]” value is listed as “++++ (>=70% = ++++)”.

Regarding “159 (LYNKGFIYL; listed as Homo sapiens) [compound 159]”, the “Wells positive [%]” value is reported as “++++ (>=70% = ++++)”.

As for “158 (HYSQELSLLYL; listed as Homo sapiens) [compound 158]”, the “Wells positive [%]” value is “+ (<20% = +)”.

Take “268 (QYLGQIQHI; listed as Homo sapiens) [compound 268]”: the “Wells positive [%]” value is “+ (<20% = +)”.

For “204 (TYELRYFQI; listed as Homo sapiens) [compound 204]”, the “Wells positive [%]” value is recorded as “+ (<20% = +)”.

Regarding “90 (FLQDLEQRL; listed as Homo sapiens) [compound 90]”, the “Wells positive [%]” value is given as “+ (<20% = +)”.

Take “230 (KLQNIMMLL; listed as Homo sapiens) [compound 230]”: the “Wells positive [%]” value was “++++ (>=70% = ++++)”.

In the case of “149 (ILNTHITEL; listed as Homo sapiens) [compound 149]”, the “Wells positive [%]” value is listed as “+ (<20% = +)”.

In a further test the target is HLA-A*02 (Homo sapiens, UniProt P04439, D140Y/D185E/D98H/E176V/E277Q/G131W/G231S/I119V/I121R/I166T/I218V/N151K/N90K/P208A/P217A/Q86G/Q94H/R138H/R169H). Kind of test: MHC binding assay (UV-ligand exchange, beta2m ELISA), HLA-A*02. The note with it: MHC class I binding score, peptide exchange yield. From the text: (§1) Candidate peptides for T cell based therapies according to the present invention were further tested for their MHC binding capacity (affinity). The individual peptide-MHC complexes were produced by UV-ligand exchange, where a UV-sensitive peptide is cleaved upon UV-irradiation, and exchanged with the peptide of interest as analyzed. Only peptide candidates that can effectively bind and stabilize the peptide-receptive MHC molecules prevent dissociation of the MHC complexes. To determine the yield of the exchange reaction, an ELISA was performed based on the detection of the light chain ([…] of stabilized MHC complexes. The assay was performed as generally described in Rodenko et al. (Rodenko et al., 2006).
(§2) 96 well MAXISorp plates (NUNC) were coated over night with 2 ug/ml streptavidin in PBS at room temperature, washed 4× and blocked for 1 h at 37° C. in 2% BSA containing blocking buffer. Refolded HLA-A*02:01/MLA-001 monomers served as standards, covering the range of 15-500 ng/ml. Peptide-MHC monomers of the UV-exchange reaction were diluted 100 fold in blocking buffer. Samples were incubated for 1 h at 37° C., washed four times, incubated with 2 ug/ml HRP conjugated anti-β2m for 1 h at 37° C., washed again and detected with TMB solution that is stopped with […]. Absorption was measured at 450 nm. Candidate peptides that show a high exchange yield (preferably higher than 50%, most preferred higher than 75%) are generally preferred for a generation and production of antibodies or fragments thereof, and/or T cell receptors or fragments thereof, as they show sufficient avidity to the MHC molecules and prevent dissociation of the MHC complexes.
(In an ELISA, binding on a coated surface is turned into a signal by an enzyme label.)
For “82 (FIFDEAEKL; listed as Homo sapiens) [compound 82]”, the Peptide exchange result is on record as “+ (<20% = +)”.

With “257 (GLYTDPCGV; listed as Homo sapiens) [compound 257]”, the Peptide exchange entry is on record as “++++ (>=75% = ++++)”.

In the case of “112 (SLGKFTFDV; listed as Homo sapiens) [compound 112]”, the Peptide exchange result is listed as “++++ (>=75% = ++++)”.

As to “258 (LLSERFINV; listed as Homo sapiens) [compound 258]”, the Peptide exchange entry is recorded as “++++ (>=75% = ++++)”.

Take “1 (LLYPEPWSV; listed as Homo sapiens) [compound 1]”: the Peptide exchange entry is given as “++++ (>=75% = ++++)”.

Take “126 (QMFQYFITV; listed as Homo sapiens) [compound 126]”: the Peptide exchange entry is “++++ (>=75% = ++++)”.

On to “229 (AILAHLNTV; listed as Homo sapiens) [compound 229]”, for which the Peptide exchange entry is listed as “++++ (>=75% = ++++)”.

In the case of “129 (RLQDILWFL; listed as Homo sapiens) [compound 129]”, the Peptide exchange result is reported as “++++ (>=75% = ++++)”.

Another test deals with HLA-A*24. Kind of test: MHC binding assay (UV-ligand exchange, beta2m ELISA), HLA-A*24. Set-up: species or system human. The note with it: MHC class I binding score, peptide exchange yield.
Source text: as §1, §2
As for “167 (NYINRILKL; listed as Homo sapiens) [compound 167]”, the Peptide exchange entry is on record as “++++ (>=75% = ++++)”.

In the case of “165 (DYTTWTALL; listed as Homo sapiens) [compound 165]”, the Peptide exchange entry was “++++ (>=75% = ++++)”.

As for “163 (DYLKGLASF; listed as Homo sapiens) [compound 163]”, the Peptide exchange entry was “++++ (>=75% = ++++)”.

Consider “159 (LYNKGFIYL; listed as Homo sapiens) [compound 159]”, for which the Peptide exchange result is given as “++++ (>=75% = ++++)”.

Regarding “158 (HYSQELSLLYL; listed as Homo sapiens) [compound 158]”, the Peptide exchange result is reported as “++++ (>=75% = ++++)”.

For “204 (TYELRYFQI; listed as Homo sapiens) [compound 204]”, the Peptide exchange result was “++++ (>=75% = ++++)”.
